Experimental data from paper PMC11243066, “Synthesis and Biological Evaluation of Novel Biased Mu-Opioid Receptor Agonists” (Molecules, 2024).
Read-outs that look alike come from different tables or passages of the source.

Experiments:
mice [1] = experiment: Hot-water tail withdrawal test; format: in vivo, CD-1 mice; details: 20 mg/kg i.v. tail vein, 15 min post administration
Protocol: (§1) Food and water were provided ad libitum.
The hot-water tail withdrawal test was performed as described previously. In brief, the hot-water tail withdrawal test was conducted using a water bath maintained at 55 ± 0.5 °C. The distal 3 cm section of the mouse’s tail was immersed perpendicularly into the hot water. The duration for which the tail remained in the water was recorded as the initial tail withdrawal latency (TWL0). […] Following the administration of a single dose of the test compound (20 mg/kg, i.v.) or vehicle, the subsequent tail withdrawal latency (TWL) was measured at various time intervals (15, 30, 45, 60, and 90 min). To prevent potential tissue damage, a maximum cutoff latency of 16 s was enforced. Antinociception was quantified using the percentage of maximal possible effect (%MPE), calculated as %MPE = 100 × (TWL − TWL0)/(16 − TWL0).

human μ-opioid receptor = target: T1, human μ-opioid receptor (Homo sapiens, UniProt P35372); experiment: cell-based; format: cell-based; details: CHO/μOR cells; for EC50: cAMP inhibition, "-" = no measurable activity, read-out: EC50 (nM) (95% CI), µOR-Gi/o activation assay; for EC50 / Emax: n = 3; for Emax: at the concentration printed in parentheses in the cell, read-out: Max Effect ± SEM (%), µOR-Gi/o activation assay
T1 construct: expressed in transfected cells; host or cells: CHO (CHO/μOR cells)
T1 sequence (P35372 whole entry): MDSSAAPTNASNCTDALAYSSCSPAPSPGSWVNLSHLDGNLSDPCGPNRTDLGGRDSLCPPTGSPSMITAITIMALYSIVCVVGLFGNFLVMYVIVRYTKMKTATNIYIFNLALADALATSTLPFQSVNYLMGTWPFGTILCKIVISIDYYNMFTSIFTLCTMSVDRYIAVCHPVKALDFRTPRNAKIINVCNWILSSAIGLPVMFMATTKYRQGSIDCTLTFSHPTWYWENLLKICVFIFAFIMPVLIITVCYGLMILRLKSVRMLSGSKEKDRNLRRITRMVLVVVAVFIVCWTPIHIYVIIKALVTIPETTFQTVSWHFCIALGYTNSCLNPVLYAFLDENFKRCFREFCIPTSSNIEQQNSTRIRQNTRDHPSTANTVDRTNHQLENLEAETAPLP
Protocol: The inhibition assay was performed as described previously. In brief, tested compound dilutions (with final concentrations of 100 µM, 50 µM, 10 µM, 1 µM, 500 nM, 100 nM, 50 nM, 10 nM, 1 nM, and 100 pM) were produced in saline or DMSO in triplicate. CHO/μOR cells were suspended in the assay buffer and counted, maintaining a cell density of 2000 cells per well, with 5 µL from each well seeded into a 384-well plate. Subsequently, 5 µL of the tested compound solution per well was dispensed into the plate, which was then placed in a 25 °C incubator and incubated in the dark for 30 min. Next, 10 µL of cAMP standard working solution was added to the empty wells of the plate, followed by the addition of 5 µL of Eu-cAMP and Anti-cAMP per well. The plate was subsequently placed back in a 25 °C incubator and further incubated in the dark for 1 h.
CHO cells expressing the human μ-opioid receptor were cultivated for the assessment of compound effects. […] Cells collected during the exponential phase of growth were dissociated without enzymes to preserve receptor integrity, resuspended in assay buffer, and counted to achieve a uniform concentration. Cell density was adjusted to 2000 cells per well in a 384-well plate, promoting uniform distribution and optimal receptor presence. Post-seeding at 25 °C in darkness facilitated cell adherence and stabilization prior to compound introduction. Compounds were added in serial dilutions, with meticulous dispensing techniques ensuring dose uniformity. Following a 1 h incubation at 25 °C, TR-FRET reagents were applied to measure cAMP levels, indicative of μOR activity. The Envision system recorded these levels, quantifying compound inhibitory effects. Meticulous aseptic techniques and vigilant monitoring were imperative throughout to guarantee data precision from the assay.

[2] = target: T2, human μOR β-arrestin2 pathway (Homo sapiens, UniProt P35372); experiment: cell-based; format: cell-based; details: for Emax: read-out: Max Effect ± SEM (%), µOR β-arrestin recruitment assay; for EC50: "-" = no measurable activity, read-out: EC50 (nM) (95% CI), µOR β-arrestin recruitment assay
T2 construct: β-galactosidase enzyme fragment (PathHunter complementation tag); host or cells: U2OS (U2OS/human μOR β-arrestin cells)
T2 sequence (P35372 whole entry, the tested form may be a part): as the sequence (P35372 whole entry) above
Protocol: In this assay, optical signal values were detected employing the PathHunter® (DiscoverX, Shanghai, China) Detection Kit assay method. The agonistic activity of tested compounds on the human μOR β-arrestin2 pathway was quantified using a β-galactosidase-based enzyme fragment complementation assay. In brief, tested compound dilutions (with final concentrations of 100 μM, 50 μM, 10 μM, 1 μM, 500 nM, 100 nM, 50 nM, 10 nM, 1 nM, and 100 pM) were produced in saline or DMSO in triplicate. Next, 100 nL of the tested compound solution per well was dispensed into a 384-well cell culture plate. The U2OS/human μOR β-arrestin cells were resuspended in Opti-MEM and counted to achieve a cell density of 4000 cells per well, and 20 μL from each well was seeded into the 384-well cell culture plate. The plate was subsequently incubated at 37 °C in the dark for 120 min. Post-incubation, the cell plate was equilibrated to room temperature for 10–20 min, and 5 μL of the detection reagent were added to each well. Following a 60 min incubation at 25 °C, chemiluminescent readings were obtained using the envision system.
The cells were maintained at 37 °C with 5% CO2 in McCoy’s 5a medium with supplements and cultivated utilizing precise techniques to ensure accurate, reproducible results. Cells were gently dissociated for assays to maintain receptor integrity and resuspended in Opti-MEM® for compatibility with the PathHunter® (DiscoverX, Shanghai, China). Detection Kit. Cell density was adjusted to 4000 cells per well in a 384-well plate, to ensure that a uniform monolayer was established for the β-galactosidase assay. After seeding and incubation in the dark at 37 °C to facilitate cell attachment, the plates were equilibrated to room temperature prior to compound treatment. Serial dilutions of the compounds were assessed for pharmacological effect. A detection reagent was then added to measure β-galactosidase activity as indicative of μ-opioid receptor and β-arrestin2 interaction. Following reagent incubation, chemiluminescence was quantified, providing quantitative data on compound agonistic activity. Throughout, meticulous aseptic technique and strict adherence to protocols were imperative to ensure the integrity of the pharmacological data derived from these studies.

mice [3] = experiment: Formalin paw-licking test; format: in vivo, CD-1 mice; details: 20 mg/kg i.v. tail vein, Phase II
Protocol: as §1
The formalin injection assay was performed as described previously. […] After 15 min, 30 µL of a 2.7% formalin solution was administered into the right hind paw of each mouse. Then, the mice were put into the cage and their behaviors were observed. The antinociception rate was quantified as the percentage of maximal possible effect (%MPE), calculated as %MPE = 100 × (PLTV − PLTT)/PLTV; PLTV and PLTT represent the average paw-licking duration during Phase II for the vehicle and test groups, respectively.

mice [4] = experiment: Acetic acid-induced writhing test; format: in vivo, CD-1 mice; details: 20 mg/kg i.v. tail vein
Protocol: as §1
The acetic acid-induced writhing test was performed as described previously. In brief, after pretreatment with the test compound at a dose of 20 mg/kg via intravenous tail vein injection, 1% (v/v) glacial acetic acid was administered intraperitoneally (i.p.) at a dose of 10 mL/kg. Subsequently, the number of writhing responses over a 20 min period was recorded. The antinociception rate was calculated as the percentage of maximal possible effect (%MPE), where %MPE = 100 × (NWV − NWT)/NWV. NWV and NWT represent the average number of writhing responses of the vehicle and test groups, respectively.

mice [5] = experiment: Physical dependence (naloxone-precipitated withdrawal jumping); details: i.v. once daily for 5 days, PZM21 and 6a 20 mg/kg, morphine 2 mg/kg, jumps over 20 min
mice [6] = experiment: Respiratory depression (blood pO2, blood gas analyzer); details: single i.v. dose 20 mg/kg (morphine 4 mg/kg), 5-40 min
[7] = U2OS/human μOR β-arrestin cells, at the concentration printed in parentheses in the cell, n = 3
[8] = U2OS/human μOR β-arrestin cells, n = 3

For `CN(C)[C@H](CNC(=O)NCCc1ccccc1)Cc1cccc2ccccc12` [6b, (S)-1-(2-(dimethylamino)-3-(naphthalen-1-yl)propyl)-3-phenethyl urea], the “pain inhibition rate (%MPE), hot-water tail-withdrawal test” value (“pain inhibition rate (%MPE)” below) (mice [1]) was 35.89%, the EC50 (human μ-opioid receptor) was 110 nM and the Emax (human μ-opioid receptor) was 73.9 ± 2.38%. The Emax [2, 7] was 1.99 ± 1.77% and the EC50 [2, 8] was greater than 100000 nM.

`CN(C)[C@H](CNC(=O)NCc1ccc(F)cc1)Cc1cccc2ccccc12` [6c, (S)-1-(2-(dimethylamino)-3-(naphthalen-1-yl)propyl)-3-(4-fluorobenzyl) urea] gave an EC50 (human μ-opioid receptor) of 72.8 nM, an Emax (human μ-opioid receptor) of 42.67 ± 0.27% and an Emax [2, 7] of 1.06 ± 0.93%. For the same compound, the EC50 [2, 8] was greater than 100000 nM.

`CN(C)[C@H](CNC(=O)NCCc1ccc(F)cc1)Cc1cccc2ccccc12` [6d, (S)-1-(2-(dimethylamino)-3-(naphthalen-1-yl)propyl)-3-(4-fluorophenethyl) urea] gave an EC50 (human μ-opioid receptor) of 88 nM, an Emax (human μ-opioid receptor) of 87.8 ± 1.18% and an Emax [2, 7] of 7.72 ± 2.88%. The EC50 [2, 8] was greater than 100000 nM.

In the case of `COc1ccc(CCNC(=O)NC[C@H](Cc2cccc3ccccc23)N(C)C)cc1` [6e, (S)-1-(2-(dimethylamino)-3-(naphthalen-1-yl)propyl)-3-(4-methoxyphenethyl) urea], the EC50 (human μ-opioid receptor) is reported as greater than 100000 nM, the Emax (human μ-opioid receptor) is reported as -1.41 ± 5.21% and the Emax [2, 7] is reported as 2.95 ± 1.37%. For the same compound, the EC50 [2, 8] was greater than 100000 nM.

In the case of `Cc1ccccc1CCNC(=O)NC[C@H](Cc1cccc2ccccc12)N(C)C` [6f, (S)-1-(2-(dimethylamino)-3-(naphthalen-1-yl)propyl)-3-(2-methylphenethyl) urea], the “antinociceptive efficacy (%MPE), formalin-induced paw licking, second phase” value (shortened to “antinociceptive efficacy (%MPE)”) (mice [3]) is reported as 59.32%, the “analgesia rate (%MPE), acetic acid-induced writhing” value (“analgesia rate (%MPE)” for short) (mice [4]) is reported as “exceeding 97%” and the “µOR agonist efficacy in Gi/o-protein signaling assay (in words)” value (from here on “µOR agonist efficacy”) (human μ-opioid receptor) is reported as “significant µOR agonist efficacy”. It also gave an EC50 (human μ-opioid receptor) of 107 nM, an Emax (human μ-opioid receptor) of 84.8 ± 1.86% and an Emax [2, 7] of 5.45 ± 1.75%. For the same compound, the EC50 [2, 8] was greater than 100000 nM.

`CN(C)[C@H](CNC(=O)Nc1ccccc1)Cc1cccc2ccccc12` [6g, (S)-1-(2-(dimethylamino)-3-(naphthalen-1-yl)propyl)-3-phenyl urea] was tested, and the “µOR agonist efficacy” value (human μ-opioid receptor) was “significant µOR agonist efficacy”, the EC50 (human μ-opioid receptor) was 59.5 nM and the Emax (human μ-opioid receptor) was 24.6 ± 0.4%. For the same compound, the Emax [2, 7] was 1.12 ± 0.52% and the EC50 [2, 8] was greater than 100000 nM.

`Cc1ccccc1CNC(=O)NC[C@H](Cc1cccc2ccccc12)N(C)C` [6h, (S)-1-(2-(dimethylamino)-3-(naphthalen-1-yl)propyl)-3-(2-methylbenzyl) urea] was tested, and the “pain inhibition rate (%MPE)” value (mice [1]) was 41.73%, the “antinociceptive efficacy (%MPE)” value (mice [3]) was 78.03% and the “analgesia rate (%MPE)” value (mice [4]) was “exceeding 97%”. The “µOR agonist efficacy” value (human μ-opioid receptor) was “significant µOR agonist efficacy”, the EC50 (human μ-opioid receptor) was 13.1 nM and the Emax (human μ-opioid receptor) was 41.7 ± 0.07%. The Emax [2, 7] was 2.19 ± 1.91% and the EC50 [2, 8] was greater than 100000 nM.

With `Cc1ccccc1NC(=O)NC[C@H](Cc1cccc2ccccc12)N(C)C` [6i, (S)-1-(2-(dimethylamino)-3-(naphthalen-1-yl)propyl)-3-(o-tolyl) urea] the EC50 (human μ-opioid receptor) was greater than 100000 nM, the Emax (human μ-opioid receptor) was 7.1 ± 0.77% and the Emax [2, 7] was 1.96 ± 0.72%. For the same compound, the EC50 [2, 8] was greater than 100000 nM.

With `CN(C)[C@H](CNC(=O)NCc1ccco1)Cc1cccc2ccccc12` [6j, (S)-1-(2-(dimethylamino)-3-(naphthalen-1-yl)propyl)-3-(furan-2-ylmethyl) urea] the “µOR agonist efficacy” value (human μ-opioid receptor) was “significant µOR agonist efficacy”, the EC50 (human μ-opioid receptor) was 97.8 nM and the Emax (human μ-opioid receptor) was 27.2 ± 1.71%. For the same compound, the Emax [2, 7] was 1.63 ± 0.32% and the EC50 [2, 8] was greater than 100000 nM.

`CN(C)[C@H](CNC(=O)NCC1CCCCC1)Cc1cccc2ccccc12` [6k, (S)-1-(cyclohexylmethyl)-3-(2-(dimethylamino)-3-(naphthalen-1-yl)propyl) urea] was tested, and the “analgesia rate (%MPE)” value (mice [4]) was “exceeding 97%”, the EC50 (human μ-opioid receptor) was greater than 100000 nM and the Emax (human μ-opioid receptor) was 20.4 ± 10.6%. It also gave an Emax [2, 7] of 4.15 ± 0.02% and an EC50 [2, 8] greater than 100000 nM.

`CN(C)[C@H](CNC(=O)NC1CCCCC1)Cc1cccc2ccccc12` [6l, (S)-1-cyclohexyl-3-(2-(dimethylamino)-3-(naphthalen-1-yl)propyl) urea] showed an EC50 (human μ-opioid receptor) greater than 100000 nM, an Emax (human μ-opioid receptor) of 18.1 ± 1.81% and an Emax [2, 7] of 1.96 ± 0.45%. It also gave an EC50 [2, 8] greater than 100000 nM.

In the case of `C[C@@H](NC(=O)[C@@H](N)Cc1ccc(O)cc1)C(=O)NCC(=O)N(C)[C@@H](Cc1ccccc1)C(=O)NCCO` [DAMGO, [D-Ala2, N-MePhe4, Gly-ol]-enkephalin, reference compound], the Emax ([2]; U2OS) is reported as 91.2%.

With `CN1CC[C@]23c4c5ccc(O)c4O[C@H]2[C@@H](O)C=C[C@H]3[C@H]1C5` [Morphine] the “physical dependence: jumping after naloxone-precipitated withdrawal vs vehicle” value (mice [5]) was “significantly greater frequency of jumping” and the “respiratory depression: partial pressure of oxygen in blood vs vehicle” value (mice [6]) was “significant reduction in the partial pressure of oxygen level”.

For `C[C@@H](Cc1ccsc1)NC(=O)NC[C@H](Cc1ccc(O)cc1)N(C)C` [PZM21, reference compound], the “pain inhibition rate (%MPE)” value (mice [1]) was 69.23%, the “physical dependence: jumping after naloxone-precipitated withdrawal vs vehicle” value (mice [5]) was “neither 6a nor PZM21 elicited a significant increase in withdrawal behaviors” and the “antinociceptive efficacy (%MPE)” value (mice [3]) was 72.72%. For the same compound, the “µOR agonist efficacy” value (human μ-opioid receptor) was “significant µOR agonist efficacy”, the Emax (human μ-opioid receptor) was 89.8 ± 2.93% and the Emax [2, 7] was 3.09 ± 0.42%. The “respiratory depression: partial pressure of oxygen in blood vs vehicle” value (mice [6]) was “neither the 6a group nor the PZM21 group demonstrated any reduction in respiratory measures”.
